Measurements published in ChEMBL document CHEMBL1201862, “PubChem BioAssay data set” (2004).
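Following 48 hours of exposure in 96-well plates, responses at five concentrations were used to interpolate endpoints linearly. GI50 marks 50% less growth.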 Active and inactive are the calls of the source. Rule as the data show it: active = GI50 up to about 1.1 µM and inactive = higher.

What was measured:
Assay in all cases: inhibition of tumour cell growth, NCI panel, 48 h
SK-MEL-2 = test system: SK-MEL-2
SK-OV-3 = test system: SK-OV-3
U-251 = test system: U-251
SK-MEL-5 = test system: SK-MEL-5
A498 = test system: A498
MOLT-4 = test system: MOLT-4
LXFL 529 = test system: LXFL 529
NCI-H23 = test system: NCI-H23
A549 = test system: A549
SF-295 = test system: SF-295
HT-29 = test system: HT-29
M14 = test system: M14
DMS-114 = test system: DMS-114
COLO 205 = test system: COLO 205
SNB-75 = test system: SNB-75
RXF 393 = test system: RXF 393
SNB-78 = test system: SNB-78
KM-20L2 = test system: KM-20L2
OVCAR-4 = test system: OVCAR-4
ACHN = test system: ACHN
EKVX = test system: EKVX
HCC 2998 = test system: HCC 2998
HCT-15 = test system: HCT-15
UACC-257 = test system: UACC-257
NCI-H460 = test system: NCI-H460
HL-60 = test system: HL-60
HOP-18 = test system: HOP-18
SR = test system: SR
SF-268 = test system: SF-268
NCI-H226 = test system: NCI-H226
SF-539 = test system: SF-539
CAKI-1 = test system: CAKI-1
786-0 = test system: 786-0
M19-MEL = test system: M19-MEL
SW-620 = test system: SW-620
UACC-62 = test system: UACC-62
SN12C = test system: SN12C
HOP-62 = test system: HOP-62
HOP-92 = test system: HOP-92
CCRF-CEM = test system: CCRF-CEM
OVCAR-8 = test system: OVCAR-8
RXF 631 = test system: RXF 631
IGROV-1 = test system: IGROV-1
OVCAR-5 = test system: OVCAR-5
UO-31 = test system: UO-31
SK-MEL-28 = test system: SK-MEL-28
LOX IMVI = test system: LOX IMVI
DMS-273 = test system: DMS-273
HCT-116 = test system: HCT-116
RPMI-8226 = test system: RPMI-8226
NCI-H522 = test system: NCI-H522
OVCAR-3 = test system: OVCAR-3
TK-10 = test system: TK-10
SNB-19 = test system: SNB-19
K562 = test system: K562
KM12 = test system: KM12
DLD-1 = test system: DLD-1
Malme-3M = test system: Malme-3M

`COc1ccc(/N=N/c2c(N)nn(C)c2N)cc1` was tested, and the GI50 (SK-MEL-2) was > 100 µM (inactive), the GI50 (SK-OV-3) was > 100 µM (inactive) and the GI50 (U-251) was > 100 µM (inactive). For the same molecule, the GI50 (SK-MEL-5) was > 100 µM (inactive), the GI50 (A498) was > 100 µM (inactive) and the GI50 (MOLT-4) was 82.8 µM (inactive). The GI50 (LXFL 529) was > 100 µM (inactive), the GI50 (NCI-H23) was > 100 µM (inactive) and the GI50 (A549) was > 100 µM (inactive). For the same molecule, the GI50 (SF-295) was > 100 µM (inactive), the GI50 (HT-29) was > 100 µM (inactive) and the GI50 (M14) was > 100 µM (inactive). For the same molecule, the GI50 (DMS-114) was > 100 µM (inactive), the GI50 (COLO 205) was > 100 µM (inactive) and the GI50 (SNB-75) was 51.6 µM (inactive). The GI50 (RXF 393) was > 100 µM (inactive), the GI50 (SNB-78) was > 100 µM (inactive) and the GI50 (KM-20L2) was > 100 µM (inactive). The GI50 (OVCAR-4) was > 100 µM (inactive), the GI50 (ACHN) was > 100 µM (inactive) and the GI50 (EKVX) was > 100 µM (inactive). The GI50 (HCC 2998) was 0.319 µM (active), the GI50 (HCT-15) was > 100 µM and the GI50 (UACC-257) was > 100 µM (inactive). For the same molecule, the GI50 (NCI-H460) was > 100 µM (inactive), the GI50 (HL-60) was > 100 µM (inactive) and the GI50 (HOP-18) was 92.3 µM (inactive). For the same molecule, the GI50 (SR) was 18.5 µM (inactive), the GI50 (SF-268) was > 100 µM (inactive) and the GI50 (NCI-H226) was > 100 µM (inactive). The GI50 (SF-539) was > 100 µM (inactive), the GI50 (CAKI-1) was > 100 µM (inactive) and the GI50 (786-0) was > 100 µM (inactive). The GI50 (M19-MEL) was > 100 µM (inactive), the GI50 (SW-620) was > 100 µM (inactive) and the GI50 (UACC-62) was > 100 µM (inactive). For the same molecule, the GI50 (SN12C) was > 100 µM (inactive), the GI50 (HOP-62) was > 100 µM (inactive) and the GI50 (HOP-92) was > 100 µM (inactive). For the same molecule, the GI50 (CCRF-CEM) was 92.7 µM (inactive), the GI50 (OVCAR-8) was > 100 µM (inactive) and the GI50 (RXF 631) was > 100 µM (inactive). For the same molecule, the GI50 (IGROV-1) was > 100 µM (inactive), the GI50 (OVCAR-5) was > 100 µM (inactive) and the GI50 (UO-31) was > 100 µM (inactive). The GI50 (SK-MEL-28) was > 100 µM (inactive), the GI50 (LOX IMVI) was > 100 µM (inactive) and the GI50 (DMS-273) was > 100 µM (inactive). The GI50 (HCT-116) was > 100 µM (inactive), the GI50 (RPMI-8226) was > 100 µM (inactive) and the GI50 (NCI-H522) was > 100 µM (inactive). For the same molecule, the GI50 (OVCAR-3) was > 100 µM (inactive), the GI50 (TK-10) was > 100 µM (inactive) and the GI50 (SNB-19) was > 100 µM (inactive). For the same molecule, the GI50 (K562) was > 100 µM (inactive), the GI50 (KM12) was > 100 µM (inactive) and the GI50 (DLD-1) was > 100 µM (inactive). For the same molecule, the GI50 (Malme-3M) was > 100 µM (inactive).
With `CCc1cccc(C(C)C)c1C1C(=O)C(=O)N(c2nc3ccccc3s2)C(=O)C1=O` the GI50 (SK-MEL-2) was > 100 µM (inactive), the GI50 (SK-OV-3) was > 100 µM (inactive) and the GI50 (U-251) was > 100 µM (inactive). For the same molecule, the GI50 (SK-MEL-5) was > 100 µM (inactive), the GI50 (A498) was > 100 µM (inactive) and the GI50 (MOLT-4) was > 100 µM (inactive). The GI50 (LXFL 529) was > 100 µM (inactive), the GI50 (NCI-H23) was > 100 µM (inactive) and the GI50 (A549) was > 100 µM (inactive). The GI50 (SF-295) was > 100 µM (inactive), the GI50 (HT-29) was > 100 µM (inactive) and the GI50 (M14) was > 100 µM (inactive). For the same molecule, the GI50 (DMS-114) was > 100 µM (inactive), the GI50 (COLO 205) was > 100 µM (inactive) and the GI50 (SNB-75) was > 100 µM (inactive). The GI50 (RXF 393) was > 100 µM (inactive), the GI50 (SNB-78) was > 100 µM (inactive) and the GI50 (KM-20L2) was > 100 µM (inactive). The GI50 (OVCAR-4) was > 100 µM (inactive), the GI50 (ACHN) was > 100 µM (inactive) and the GI50 (EKVX) was > 100 µM (inactive). The GI50 (HCC 2998) was > 100 µM (inactive), the GI50 (HCT-15) was > 100 µM and the GI50 (UACC-257) was > 100 µM (inactive). The GI50 (NCI-H460) was > 100 µM (inactive), the GI50 (HL-60) was > 100 µM (inactive) and the GI50 (HOP-18) was > 100 µM (inactive). For the same molecule, the GI50 (SR) was > 100 µM (inactive), the GI50 (SF-268) was > 100 µM (inactive) and the GI50 (NCI-H226) was > 100 µM (inactive). The GI50 (SF-539) was > 100 µM (inactive), the GI50 (CAKI-1) was > 100 µM (inactive) and the GI50 (786-0) was > 100 µM (inactive). For the same molecule, the GI50 (M19-MEL) was > 100 µM (inactive), the GI50 (SW-620) was > 100 µM (inactive) and the GI50 (UACC-62) was > 100 µM (inactive). The GI50 (SN12C) was > 100 µM (inactive), the GI50 (HOP-62) was > 100 µM (inactive) and the GI50 (HOP-92) was 38.7 µM (inactive). For the same molecule, the GI50 (CCRF-CEM) was > 100 µM (inactive), the GI50 (RXF 631) was > 100 µM (inactive) and the GI50 (IGROV-1) was > 100 µM (inactive). The GI50 (OVCAR-5) was > 100 µM (inactive), the GI50 (UO-31) was > 100 µM (inactive) and the GI50 (SK-MEL-28) was > 100 µM (inactive). The GI50 (LOX IMVI) was > 100 µM (inactive), the GI50 (DMS-273) was > 100 µM (inactive) and the GI50 (HCT-116) was > 100 µM (inactive). For the same molecule, the GI50 (RPMI-8226) was > 100 µM (inactive), the GI50 (OVCAR-3) was > 100 µM (inactive) and the GI50 (TK-10) was > 100 µM (inactive). The GI50 (SNB-19) was 71.9 µM (inactive), the GI50 (K562) was > 100 µM (inactive) and the GI50 (KM12) was > 100 µM (inactive). For the same molecule, the GI50 (DLD-1) was > 100 µM (inactive) and the GI50 (Malme-3M) was > 100 µM (inactive).
